The values that follow come from US20260034253A1, “NECTIN-4 MINIPROTEIN CONJUGATES” (Aktis Oncology, Inc., priority 2022, published 2026).

Numbered stars: 1 amine (or outer) side, 2 acyl side, 3 side chain; on linkers, the order of the positions; unused ones are H or OH. Bridge positions count the residues as written; N and C are the ends. Square brackets hold non-standard residues; d marks the D form. Ends that are not written are not given here. * marks the point of attachment. Biotin = O=C1N[C@H]2[C@H](CS[C@H]2CCCCC(=O)*)N1; X1 = O=C([C@H](CCCCO)N[*:1])[*:2]; Cit = NC(=O)NCCC[C@H](N)C(=O)O; PEG4 = NCCOCCOCCOCCOCCC(=O)O

This test addresses T1, human Nectin-4 (Homo sapiens, UniProt Q96NY8).
T1 sequence (Q96NY8 32-510): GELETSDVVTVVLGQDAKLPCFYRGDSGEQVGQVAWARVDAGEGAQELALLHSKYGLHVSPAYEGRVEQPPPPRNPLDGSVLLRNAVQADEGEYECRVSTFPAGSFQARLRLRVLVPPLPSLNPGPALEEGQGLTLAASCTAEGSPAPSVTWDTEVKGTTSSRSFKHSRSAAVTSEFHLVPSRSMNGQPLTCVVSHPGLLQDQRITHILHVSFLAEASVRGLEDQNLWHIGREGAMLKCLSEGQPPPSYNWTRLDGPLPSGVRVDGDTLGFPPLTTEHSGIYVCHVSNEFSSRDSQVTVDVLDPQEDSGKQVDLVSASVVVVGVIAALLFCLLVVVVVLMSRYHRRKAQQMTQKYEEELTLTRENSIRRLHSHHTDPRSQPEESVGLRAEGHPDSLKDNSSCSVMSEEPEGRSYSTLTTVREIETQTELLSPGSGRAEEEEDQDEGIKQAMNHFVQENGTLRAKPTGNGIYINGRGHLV
As to the kind of experiment: Surface plasmon resonance (Biacore T200) binding to human Nectin-4. The following applies: Table 2B, binding affinities of exemplary compounds to Nectin-4, read-out: Binding Affinity. Here is the method:
Peptide binding affinity to the target protein was measured by SPR using a Biacore T200 instrument. The target protein was covalently coupled to a Biacore chip surface using free amine-coupling chemistry (NHS/EDC) and all uncoupled sites were blocked with ethanolamine. Free peptides were flowed over the target protein surface in increasing concentrations to measure association (KA) and dissociation ([…]) to calculate the equilibrium dissociation constant (KD) using an appropriate binding model (see, e.g., Nikolas Stroth, J Biol Methods. 2016; 3 (1)).
In all figures (FIGS. 1A, 1B, 2A, and 2B), lines on graphs are labeled from top to bottom, beginning with letter “a,” and the corresponding concentration is noted to the right of the figure, next to the letter designating each line.
Surface plasmon resonance (SPR) analyses were performed using Biacore T200 (GE Healthcare). Target protein (“ligand”) was immobilized to a CM5 Series S sensor chip (Cytiva) using amine-coupling chemistry. Running buffer was 0.05% Surfactant P20 in HEPES buffered saline (HBS-P), pH 7.4 (Cytiva). Immobilization was performed at 25° C. Carboxyl groups in each flow cell were activated using a 1:1 mixture of 0.4 M 1-ethyl-3-(3-dimethylaminopropyl)-carbodiimide in water (EDC) and 0.1 M N-hydroxysuccinimide in water (NHS) for 7 minutes. The ligand was prepared in 10 mM Sodium acetate pH 5 (Cytiva). Pulsatile injections were made to target a specific immobilization level. Any remaining amine-reactive esters on the chip surface were blocked with a 7-minute injection of 1 M ethanolamine, pH 8.5. Three 10-second pulses of 50 mM Sodium hydroxide were then made to remove any unbound ligand. Reference cells were modified using amine coupling chemistry, omitting ligand injection.
Increase in signal (RU) is proportional to an increase in binding events between the analyte and ligand surface. The injection was then stopped, and dissociation was measured. The resulting sensorgram has reference surface and blank injection subtracted prior to curve fitting. Measured association (ka, 1/M^s−1) and dissociation (kd, s^−1) were fit to a 1:1 binding model to calculate an equilibrium dissociation constant, KD(M) for each analyte. Equilibrium binding constants (KD) and binding inhibition constants (Ki) estimated from surface plasmon resonance (SPR) or DELFIA® binding assays for exemplary compounds as set forth in Table 2A.
In this example, affinity for mouse Nectin-4 (FIG. 3A) and human Nectin-4 (FIG. 3B) were measured using a 1:1 binding model at twenty-five degrees Celsius. In both of FIGS. 3A and 3B, lines on graphs were labeled from top to bottom, beginning with letter a, and the corresponding concentration was noted to the right of the figure.
A general note: SPR reads the build-up and loss of mass on a sensor chip optically.
On to “{Biotin-PEG4}-CEYDEQFFTALKRLRGADICEYIQASFQYLPGLCIEEILDNLGCS (disulfide 1-34, 20-44) [Compound C183]”, for which the Kd stood at 1.2 nM.
For the compound “{Biotin-PEG4}-CEYDEEFFTALARLRGGDICYYILAKFQYLPGECIEEILDNLGCS (disulfide 1-34, 20-44) [Compound C145]”, the Kd came out at 1.3 nM.
On to “{Biotin-PEG4}-CDYDEQFFTALKRLRGDDICEYIQASFQYLPGLCIEEILDNLGCS (disulfide 1-34, 20-44) [Compound C193]”, for which the Kd came out at 1 nM.
For the compound “{Biotin-PEG4}-CEYDEEFFTALKRLRGGDICDYIQASFQYLPGLCIEEILDNLGCS-OH (disulfide 1-34, 20-44) [Compound C200]”, the Kd worked out at 2 nM.
Turning to “{Biotin-PEG4}-CDYDEEFFTALKRLRGGDICSYIQASFQYLPGLCIEEILDNLGCS (disulfide 1-34, 20-44) [Compound C189]”, the Kd amounted to 1.1 nM.
The result for `CC[C@H](C)[C@@H]1NC(=O)[C@H](Cc2ccc(O)cc2)NC(=O)[C@H](CO)NC(=O)[C@@H]2CSSC[C@@H](C(=O)N[C@@H](CO)C(=O)O)NC(=O)CNC(=O)[C@H](CC(C)C)NC(=O)[C@H](CC(N)=O)NC(=O)[C@H](CC(=O)O)NC(=O)[C@H](CC(C)C)NC(=O)[C@H]([C@@H](C)CC)NC(=O)[C@H](CCC(=O)O)NC(=O)[C@H](CCC(=O)O)NC(=O)[C@H]([C@@H](C)CC)NC(=O)[C@H](CSSC[C@H](NC(=O)CCOCCOCCOCCOCCNC(=O)CCCC[C@@H]3SC[C@@H]4NC(=O)N[C@@H]43)C(=O)N[C@@H](CCC(=O)O)C(=O)N[C@@H](Cc3ccc(O)cc3)C(=O)N[C@@H](CC(=O)O)C(=O)N[C@@H](CCC(=O)O)C(=O)N[C@@H](CCC(=O)O)C(=O)N[C@@H](Cc3ccccc3)C(=O)N[C@@H](Cc3ccccc3)C(=O)N[C@@H]([C@@H](C)O)C(=O)N[C@@H](C)C(=O)N[C@@H](CC(C)C)C(=O)N[C@@H](CCCCN)C(=O)N[C@@H](CCCNC(=N)N)C(=O)N[C@@H](CC(C)C)C(=O)N[C@@H](CCCNC(=N)N)C(=O)NCC(=O)NCC(=O)N[C@@H](CC(=O)O)C(=O)N[C@@H]([C@@H](C)CC)C(=O)N2)NC(=O)[C@H](CC(C)C)NC(=O)CNC(=O)[C@@H]2CCCN2C(=O)[C@H](CC(C)C)NC(=O)[C@H](Cc2ccc(O)cc2)NC(=O)[C@H](CCC(N)=O)NC(=O)[C@H](Cc2ccccc2)NC(=O)[C@H](CO)NC(=O)[C@H](C)NC(=O)[C@H](CCC(N)=O)NC1=O` [Compound C179] reads 1.8 nM; that for “{Biotin-PEG4}-CEYDGEFFTALARLRGGDICQYIQAKFQYLPGLCIEEILDNLGCS-OH (disulfide 1-34, 20-44) [Compound C158]”, 1.1 nM.
Turning to “{Biotin-PEG4}-CEYDEEFFTALASLRGGDICYYIQAKFQYLPGLCIEEILDNLGCS-OH (disulfide 1-34, 20-44) [Compound C161]”, the Kd was found to be 7.5 nM.
For “{Biotin-PEG4}-CEYDEEFFTALAQLRGGDICYYIQAKFQYLPGLCIEEILDNLGCS (disulfide 1-34, 20-44) [Compound C162]” the value was 8.8 nM.
“{Biotin-PEG4}-CEYDGEFFTALARLRGADICEYIQAKFQYYPGLCIEEILDNLGCS (disulfide 1-34, 20-44) [Compound C144]”: the Kd is 3.7 nM.
Consider “{Biotin-PEG4}-CEYDEEFFTALARLRGSDICLYIQAKFQYLPGLCIEEILDNLGCS (disulfide 1-34, 20-44) [Compound C156]”, for which the Kd was determined as 1.1 nM.
“{Biotin-PEG4}-CEYDEEFFTALARLRGADICYYIQAKFQYLPGDCIEEILDNLGCS (disulfide 1-34, 20-44) [Compound C140]”: the Kd was found to be 1.1 nM.
Regarding “{Biotin-PEG4}-CEYDEEFFTALARLRGGDICEYIQAKFQYLEGLCIEEILDNLGCS-OH (disulfide 1-34, 20-44) [Compound C150]”, the Kd is 1 nM.
As for “{Biotin-PEG4}-CDYDEEFFTALKRLRGDDICEYIQASFQYLPGLCIEEILDNLGCS-OH (disulfide 1-34, 20-44) [Compound C191]”, the Kd worked out at 1.4 nM.
With “{Biotin-PEG4}-CEYDEQFFTALKRLRGADICSYIQASFQYLPGLCIEEILDNLGCS (disulfide 1-34, 20-44) [Compound C185]”, the Kd came out at 1 nM.
For “{Biotin-PEG4}-CEYDEEFFTALKRLRGADICDYIQASFQYLPGLCIEEILDNLGCS (disulfide 1-34, 20-44) [Compound C195]” the value was 2.3 nM; for “{Biotin-PEG4}-CEYDEEFFTALKRLRGGDICEYIQAAFQYLPGLCIEEILDNLGCS (disulfide 1-34, 20-44) [Compound C198]”, 2.3 nM.
For “{Biotin-PEG4}-CEYDEEFFTALARLRGGDICDYIQAKFQYLPGLCIAEILDNLGCS (disulfide 1-34, 20-44) [Compound C157]” the value was 1.1 nM.
Regarding “{Biotin-PEG4}-CEYDEEFFTALKRLRGGDICDYIQASFQYLPGECIEEILDNLGCS (disulfide 1-34, 20-44) [Compound C203]”, the Kd is 2.3 nM.
As for “{Biotin-PEG4}-CEYDEEFFTALKRLRGGDICEYIQASFQYLPGECIEEILDNLGCS (disulfide 1-34, 20-44) [Compound C202]”, the Kd is 2.2 nM.
With “{Biotin-PEG4}-CEYDEEFFTALARLRGGDICQYIQAKFQYLPGQCIEEILDNLGCS-OH (disulfide 1-34, 20-44) [Compound C149]”, the Kd stood at 0.75 nM.
For “{Biotin-PEG4}-CEYDEEFFTALARLRGGDICYYIQAKFQYLPKLCIEEILDNLGCS (disulfide 1-34, 20-44) [Compound C166]” the value was 0.75 nM; for “{Biotin-PEG4}-CEYDEEFFTALARLRGGDICYYIQA[X1]FQYLPGLCIEEILDNLGCS-OH (disulfide 1-34, 20-44) [Compound C164]”, 5 nM; for “{Biotin-PEG4}-CEYDEEFFTALKRLRGDDICSYIQASFQYLPGLCIEEILDNLGCS (disulfide 1-34, 20-44) [Compound C182]”, 3 nM.
“{Biotin-PEG4}-CEYDEEFFTALA[Cit]LRGDDICSYIQA[X1]FQYLPGLCIEEILDNLGCS-OH (disulfide 1-34, 20-44) [Compound C170]”: the Kd came out at 8.8 nM.
